This is an account of results in PMC12114796, “Self-Assembled Cannabigerol-Based Nanoparticles: Design, Synthesis, and Antiproliferative Activity” (Pharmaceutics, 2025).

In test [1] the test system is LN229 (human glioblastoma) cells. Briefly: Cell viability, trypan blue dye exclusion assay (antiproliferative activity). In kind it is cell-based. As for the experimental part:
(§1) The cell lines used in our study were purchased from ATCC (American Type Culture Collection). […] LN229 (human glioblastoma) cells were cultured in DMEM (D2902, Merck) supplemented with 3.5 g/L glucose and 5% FCS. NaHCO3 (S5761, Merck), as indicated in the manufacturer’s instructions, 100 U/mL penicillin, 100 μg/mL streptomycin, and 0.25 μg/mL amphotericin B (A5955, Merck) were added to the culture media. The cells were maintained at 37 °C in a humidified atmosphere incubator containing 5% carbon dioxide in air.
(§2) The cell viability was analyzed by a trypan blue dye exclusion assay. Briefly, 3–4 × 10^4 cells were seeded in each well of a 24-well cell culture plate and treated with test drugs or NPs at concentrations ranging from 1 to 30 nM and from 0.01 to 20 μM, respectively, after 24 of growth in standard conditions. After 72 h from the treatment, the cells were detached by trypsinization and counted by optical microscope.

In test [2] the test system is HT-29 (human colorectal adenocarcinoma) cells. The description is as above. The following applies: HT-29, 72 h. In kind it is cell-based. As for the experimental part: as §1, §2
The subject of test [3] is MSTO-211H (human biphasic mesothelioma) cells. The description is as above. Particulars: 72 h. It counts as cell-based. As for the experimental part: as §1, §2
In test [4] the test system is MeT-5A (human mesothelium, non-tumorigenic) cells. Described as above. It counts as cell-based. The following applies: 72 h. The method, then:
as §1, §2

Test [5] relates to microtubules in LN229 cells. Description: Confocal microscopy of microtubule status (anti-β-tubulin staining). It counts as cell-based, human. Particulars: LN229, 4 h; Desa 3 µM, Np1b 200 µM, PTX and Np2b at indicated concentrations.
Procedure: LN229 cells (3 × 10^4) were seeded in 4-well cell culture chamber on a glass slide and cultured up to 50–60% confluence. […] After incubation, the cells were gently washed twice with PBS, fixed with 4% formaldehyde at room temperature for 15 min, washed twice with PBS, and permeabilized with 0.1% Triton X-100 (T8787, Merck) in PBS for 5 min in the dark. Again, the cells were washed twice with PBS and incubated for 30 min in the dark with 7% FCS in PBS. […] After washing twice with PBS, 0.001 mg/mL DAPI (MBD0015, Merck) was added for 15 min, then the cells were washed with PBS, and the coverslips were mounted on glass slides using Fluoroshield^TM (F6182, Merck). […] Particle counting and size distribution were estimated using the built-in Analyze Particles plugin in Image J (Fiji).
Test [6] concerns LN229, HT-29, MSTO-211H and MeT-5A cells. Briefly: Antiproliferative activity compared across the cell line panel. It counts as cell-based. The following applies: Homo sapiens; all four cell lines, 72 h; read-out: GI50 values (range over the cell lines). As for the experimental part:
The cell lines used in our study were purchased from ATCC (American Type Culture Collection). Specifically, we used LN-229 (ATCC CRL-2611), HT-29 (ATCC HTB-38), and MSTO-211H (ATCC CRL-2081). MeT-5A (ATCC CRL-9444), MSTO-211H (human biphasic mesothelioma), and Met-5A (human mesothelium) cells were grown in RPMI 1640 (R6504, Merck) supplemented with 2.38 g/L Hepes (H3375, Merck, St. Louis, MO, USA), 0.11 g/L pyruvate sodium (P5280, Merck), 2.5 g/L glucose (G6152, Merck), and 10% heat-inactivated fetal calf serum (FCS, F7524, Merck). HT-29 (human colorectal adenocarcinoma) cells were grown in RPMI 1640 (R6504, Merck) supplemented with 10% heat-inactivated FCS. LN229 (human glioblastoma) cells were cultured in DMEM (D2902, Merck) supplemented with 3.5 g/L glucose and 5% FCS. NaHCO3 (S5761, Merck), as indicated in the manufacturer’s instructions, 100 U/mL penicillin, 100 μg/mL streptomycin, and 0.25 μg/mL amphotericin B (A5955, Merck) were added to the culture media. The cells were maintained at 37 °C in a humidified atmosphere incubator containing 5% carbon dioxide in air.
The cell viability was analyzed by a trypan blue dye exclusion assay. […] After 72 h from the treatment, the cells were detached by trypsinization and counted by optical microscope. […]

The subject of a further test is LN229 cells. Description: Cell cycle analysis by flow cytometry (propidium iodide). It counts as cell-based, human. Particulars: LN229, 48 h. The method, then: A total of 2 × 10^5 LN229 cells were seeded in Petri culture plates, left to grow for 24 h in standard conditions, and then treated with CPT and Np3b at the indicated concentrations. After 48 h, the cells were harvested, centrifuged, combined with ice-cold 70% w/v ethanol, and left at 4 °C for 20 min. Then, the cells were centrifuged, and the pellet was resuspended in a final volume of 300 μL PBS containing 0.1 mg mL^−1 RNAse (R6513, Merck) and […] propidium iodide (P4170, Merck). The DNA content was quantified by a BD FACSAria III flow cytometer (BD Life Sciences) and the data were analyzed by BD FACSDiva software (version 9.0). Statistical analysis was performed by Student’s t-test.
(In general: Flow cytometry measures light scatter and fluorescence of single cells or particles in a stream.)

Molecules are shown by their SMILES. Read-outs that look alike come from different tables or passages of the source.

What is called GI50 is the concentration that inhibits growth by half. For the molecule `CC(=O)O[C@H]1C(=O)[C@@]2(C)[C@H]([C@H](OC(=O)c3ccccc3)[C@]3(O)C[C@H](OC(=O)[C@H](O)[C@@H](NC(=O)c4ccccc4)c4ccccc4)C(C)=C1C3(C)C)[C@]1(OC(C)=O)CO[C@@H]1C[C@@H]2O` [PTX, paclitaxel], the 50% growth inhibitory concentration (GI50) came out at 4.2 ± 0.7 nM in test [1] (LN-229, 72 h); 2.8 ± 0.2 nM in test [2]; 3.3 ± 0.6 nM in test [3]; 4.4 ± 0.1 nM in test [4]. The “effect on microtubule network” value in test [5] is “polymerizing effect”.

Take `CCCCCc1cc(O)c(C/C=C(\C)CCC=C(C)C)c(O)c1` [CBG, Cannabigerol]: the GI50 in test [1] (LN-229, 72 h) is 5900 ± 1300 nM; in test [2] it was 9700 ± 200 nM; in test [3] it was 16000 ± 2000 nM; in test [4] it was 16000 ± 2000 nM; in test [6] it was 5900 to 16000 nM.

As for `CC[C@@]1(O)C(=O)OCc2c1cc1n(c2=O)Cc2cc3ccccc3nc2-1` [CPT, camptothecin], the concentration for 50% growth inhibition (GI50) in test [1] (LN-229, LN229, 72 h, mean ± SD, read-out: GI50) came out at 7.9 ± 0.1 nM; in test [2] (mean ± SD, read-out: GI50) it was 7.9 ± 0.8 nM; in test [3] (mean ± SD, read-out: GI50) it was 3.3 ± 1 nM; in test [4] (mean ± SD, read-out: GI50), 7.8 ± 0.2 nM. Further, the “cells in G2/M phase” value in the test with LN229 cells (20 nM CPT (control 11.7%)) was found to be 33.4%. For the same molecule, the “cells in G1 phase” value in the test with LN229 cells (20 nM CPT (control 69.4%)) was 49.4%.
